In data set [1] the test system is MTB strain H37Rv. Type of data set: cell-based, Mycobacterium tuberculosis.
Data set [2] relates to MTB strain H37Rv. Type of data set: cell-based, Mycobacterium tuberculosis. This is another data set of the same source.
Data set [3] relates to MTB strain H37Rv. Type of data set: cell-based, Mycobacterium tuberculosis. This is another data set of the same source.
Data set [4] relates to tuberculosis bacilli in the lungs. Put plainly: Chronic murine infection model, efficacy versus duration of infection. Type of data set: in vivo, mouse.
Data set [5] has as its system MTB strain H37Rv. Set-up: species or system C57/BL6 mice. The conditions noted are these: mouse, in vivo.
The test system of the next data set is MTB. As to conditions: against MTB; cited from earlier work.
The conditions of data set [6]: cited from earlier work.
For data set [7] the following is noted: renal and ototoxicity, parenteral use; cited from earlier work.
For data set [8] the following is noted: cited from earlier work. This is another data set of the same source.
Where [9] appears, read: 10 times MIC, after 18-24 hours of incubation, stationary phase.

The source of these data is patent US20070128124A1 (published 2007).

Read-outs that look alike come from different tables or passages of the source.

In the case of `NNC(=O)c1ccncc1` [isoniazid], in the data set on MTB strain H37Rv [1], the “decrease in RLU from untreated cultures at peak efficacy” value (shortened to “decrease in RLU from untreated cultures”) is listed as ~1.5 log and the “time of peak efficacy (RLU endpoint)” value was determined as 72 h. For the same molecule, the “time at which an effect begins” value in the data set on MTB strain H37Rv [2] was 48 h. Besides, the “RLU reduction, stationary phase” value in the data set with MTB strain H37Rv [2] (setting [9]) is on record as “no significant effect”. For the same molecule, the “reduction of CFUs” value in the data set on MTB strain H37Rv [3] was “no effect”. Also, in [4] (13 weeks post infection), the “reduction of bacillary load in the lungs” value came to 0.5 logs. Also, in data set [4] (two weeks post infection), the “reduction of lung CFU” value is reported as 2 logs.
As to `CO[C@H]1/C=C/O[C@@]2(C)Oc3c(C)c(O)c4c(O)c(c(/C=N/N5CCN(C)CC5)c(O)c4c3C2=O)NC(=O)/C(C)=C\C=C\[C@H](C)[C@H](O)[C@@H](C)[C@@H](O)[C@@H](C)[C@H](OC(C)=O)[C@@H]1C` [rifampicin], in the data set with MTB strain H37Rv [1], the “RLU reduction, log phase growth” value is 2.25 logs and the “decrease in RLU from untreated cultures” value came out at 3.5 log. Also, the “RLU reduction, stationary phase” value with MTB strain H37Rv [2] amounted to 0.3 logs. Moreover, the “reduction of CFUs” value with MTB strain H37Rv [3] is listed as 0.5 logs.
As for Capreomycin, in the data set with MTB strain H37Rv [1], the “RLU reduction, log phase growth” value is “approximately 2 logs”; the “decrease in RLU from untreated cultures” value is given as 3.5 log; the “efficacy compared with isoniazid and rifampicin” value is “superior to that of isoniazid and is as efficacious as rifampicin”. For the same molecule, in the data set on MTB strain H37Rv [2] (setting [9]), the “RLU reduction, stationary phase” value is “approximately 2 logs”. Besides, the “reduction in efficacy from log phase cultures” value in the data set on MTB strain H37Rv [2] (stationary versus log phase, RLU at 24 hrs) was ~15%. Besides, the “reduction of CFUs” value with MTB strain H37Rv [3] is given as 2.5 logs. In the data set with MTB strain H37Rv [5], the “reduction in lung CFU, aerosol treated group” value is reported as ~2.5 logs. The “reduction in lung CFU, subcutaneous administered group” value in the data set on MTB strain H37Rv [5] (sc) is 1 log. In addition, the “minimum inhibitory concentration (MIC)” value with MTB is 2.5 µg/mL. The “maximum serum concentration (Cmax)” value in [6] (human, reached two hours after intramuscular injection) was 25000 ng/mL. The oral absorption result in data set [6] (oral) is given as “quite poor”. The “patients in whom toxicities occur” value in [7] is recorded as “up to 10 % of patients”. Moreover, the solubility in water entry in data set [8] was “soluble in water”.
